Laboratory results taken from ChEMBL document CHEMBL5465560, “Selectivity Literature for EUbOPEN Chemogenomic Library” (2024).

Experiments:
[1] = target: T1, Serine/threonine-protein kinase NLK (Homo sapiens) (UniProt Q9UBE8); details: at 10 µM
T1 sequence (whole entry): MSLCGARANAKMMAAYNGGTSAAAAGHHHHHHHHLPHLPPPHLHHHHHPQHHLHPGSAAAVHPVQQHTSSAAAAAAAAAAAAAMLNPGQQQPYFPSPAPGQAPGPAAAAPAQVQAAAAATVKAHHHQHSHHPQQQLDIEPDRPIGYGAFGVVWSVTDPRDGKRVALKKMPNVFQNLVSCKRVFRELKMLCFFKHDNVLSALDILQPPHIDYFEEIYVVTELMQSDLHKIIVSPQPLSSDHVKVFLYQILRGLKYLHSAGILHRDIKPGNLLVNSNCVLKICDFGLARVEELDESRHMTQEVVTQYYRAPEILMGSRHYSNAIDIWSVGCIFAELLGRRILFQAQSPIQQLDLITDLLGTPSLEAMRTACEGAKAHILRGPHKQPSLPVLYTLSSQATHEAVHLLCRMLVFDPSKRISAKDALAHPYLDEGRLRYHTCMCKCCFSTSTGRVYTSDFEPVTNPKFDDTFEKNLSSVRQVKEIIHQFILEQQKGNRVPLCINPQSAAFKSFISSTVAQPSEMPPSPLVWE

[2] = target: T2, Serine/threonine-protein kinase PLK4 (Homo sapiens) (UniProt O00444); test: Selectivity interaction (ProQinase) EUB0000171b PLK4
T2 sequence (whole entry): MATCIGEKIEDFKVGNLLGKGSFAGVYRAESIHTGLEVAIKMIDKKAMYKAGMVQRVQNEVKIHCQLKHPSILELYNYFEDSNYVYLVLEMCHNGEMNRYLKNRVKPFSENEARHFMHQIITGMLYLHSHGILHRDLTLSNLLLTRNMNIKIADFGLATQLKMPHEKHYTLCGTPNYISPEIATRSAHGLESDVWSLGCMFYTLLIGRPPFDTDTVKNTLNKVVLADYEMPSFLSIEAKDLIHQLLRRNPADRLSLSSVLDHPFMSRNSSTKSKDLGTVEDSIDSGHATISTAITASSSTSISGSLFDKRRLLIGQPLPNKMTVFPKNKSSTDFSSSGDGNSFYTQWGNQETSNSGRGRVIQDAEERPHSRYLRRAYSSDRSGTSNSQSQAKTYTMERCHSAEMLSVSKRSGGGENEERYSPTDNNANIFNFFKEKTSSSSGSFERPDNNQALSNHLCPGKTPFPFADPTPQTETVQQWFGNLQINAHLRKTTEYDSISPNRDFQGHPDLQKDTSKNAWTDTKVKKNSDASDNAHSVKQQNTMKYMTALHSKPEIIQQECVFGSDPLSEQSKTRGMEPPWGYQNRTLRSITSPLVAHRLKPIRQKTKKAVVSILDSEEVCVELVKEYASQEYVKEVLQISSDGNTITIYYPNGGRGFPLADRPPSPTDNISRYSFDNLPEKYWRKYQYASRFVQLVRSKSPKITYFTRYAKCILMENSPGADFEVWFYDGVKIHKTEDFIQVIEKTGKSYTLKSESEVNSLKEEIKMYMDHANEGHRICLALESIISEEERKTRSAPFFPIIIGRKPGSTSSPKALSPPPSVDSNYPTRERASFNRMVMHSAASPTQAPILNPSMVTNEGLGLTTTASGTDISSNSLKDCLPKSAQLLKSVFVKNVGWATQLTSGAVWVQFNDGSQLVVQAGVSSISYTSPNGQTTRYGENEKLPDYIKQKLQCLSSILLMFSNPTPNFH

[3] = target: cAMP-dependent protein kinase catalytic subunit alpha (Homo sapiens, UniProt P17612); test: Selectivity interaction (Kinase panel (33PanQinase(R) Activity Assay)) EUB0000877a PRKACA
[4] = target: Casein kinase I isoform alpha (Homo sapiens, UniProt P48729); test: Selectivity interaction (ActivX KiNativ screen (kinase selectivity in THP-1 cell lysates)) EUB0000639a CSNK1A1; type: subcellular; details: lysate, at 0.01 µM
[5] = target: T3, Serine/threonine-protein kinase ULK1 (Homo sapiens) (UniProt O75385); test: Selectivity interaction (KinomeScan (DiscoverX)) EUB0000595a ULK1; details: at 10 µM
T3 sequence (whole entry): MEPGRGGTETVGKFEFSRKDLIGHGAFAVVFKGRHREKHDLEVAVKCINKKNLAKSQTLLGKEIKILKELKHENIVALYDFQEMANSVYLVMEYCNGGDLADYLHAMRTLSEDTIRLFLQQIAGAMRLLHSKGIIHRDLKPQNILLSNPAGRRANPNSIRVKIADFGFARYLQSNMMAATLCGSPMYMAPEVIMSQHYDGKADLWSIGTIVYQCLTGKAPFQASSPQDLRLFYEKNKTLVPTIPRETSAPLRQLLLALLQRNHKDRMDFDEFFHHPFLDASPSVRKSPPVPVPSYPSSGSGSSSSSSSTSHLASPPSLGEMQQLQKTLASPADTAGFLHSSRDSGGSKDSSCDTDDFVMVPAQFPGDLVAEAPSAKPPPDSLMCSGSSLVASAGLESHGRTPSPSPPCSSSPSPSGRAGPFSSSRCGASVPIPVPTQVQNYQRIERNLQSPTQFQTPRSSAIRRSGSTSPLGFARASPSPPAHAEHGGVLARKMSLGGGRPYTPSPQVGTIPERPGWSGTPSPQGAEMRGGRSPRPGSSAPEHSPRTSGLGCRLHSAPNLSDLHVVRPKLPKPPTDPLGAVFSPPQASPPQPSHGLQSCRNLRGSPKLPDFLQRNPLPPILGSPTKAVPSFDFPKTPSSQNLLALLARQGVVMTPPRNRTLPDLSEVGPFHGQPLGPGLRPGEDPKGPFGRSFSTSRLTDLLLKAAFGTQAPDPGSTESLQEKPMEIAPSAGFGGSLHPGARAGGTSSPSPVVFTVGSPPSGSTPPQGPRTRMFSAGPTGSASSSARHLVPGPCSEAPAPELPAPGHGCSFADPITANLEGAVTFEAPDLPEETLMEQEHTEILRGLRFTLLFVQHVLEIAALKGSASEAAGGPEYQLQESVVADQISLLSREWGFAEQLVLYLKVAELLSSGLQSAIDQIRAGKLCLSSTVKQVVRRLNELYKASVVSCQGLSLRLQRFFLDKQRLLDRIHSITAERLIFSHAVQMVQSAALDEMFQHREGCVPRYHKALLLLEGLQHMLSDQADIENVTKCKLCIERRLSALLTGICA

[6] = target: MAP/microtubule affinity-regulating kinase 3 (Homo sapiens) (UniProt P27448); test: Selectivity interaction (Kinase panel (Carna Biosciences)) EUB0001542aTs MARK3; details: at 1 µM
[7] = target: Tyrosine-protein kinase Srms (Homo sapiens) (UniProt Q9H3Y6); test: Selectivity interaction (KinomeScan (DiscoverX)) EUB0001619a SRMS; details: at 1 µM
Sequence of Tyrosine-protein kinase Srms (Homo sapiens) (Q9H3Y6 whole entry): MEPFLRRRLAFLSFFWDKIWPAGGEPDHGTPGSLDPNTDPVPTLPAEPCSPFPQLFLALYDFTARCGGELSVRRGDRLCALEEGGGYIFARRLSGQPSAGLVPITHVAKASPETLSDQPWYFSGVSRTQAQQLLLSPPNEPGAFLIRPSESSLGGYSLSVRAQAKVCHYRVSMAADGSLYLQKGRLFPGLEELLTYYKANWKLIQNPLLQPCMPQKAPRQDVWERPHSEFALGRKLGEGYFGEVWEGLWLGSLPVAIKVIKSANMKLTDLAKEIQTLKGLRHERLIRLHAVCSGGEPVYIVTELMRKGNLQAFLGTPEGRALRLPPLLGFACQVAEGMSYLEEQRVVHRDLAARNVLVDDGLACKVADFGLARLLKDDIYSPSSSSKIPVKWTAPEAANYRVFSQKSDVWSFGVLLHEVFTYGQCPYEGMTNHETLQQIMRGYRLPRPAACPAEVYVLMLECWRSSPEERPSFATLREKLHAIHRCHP

Sequence of Casein kinase I isoform alpha (P48729 2-337 limits assumed): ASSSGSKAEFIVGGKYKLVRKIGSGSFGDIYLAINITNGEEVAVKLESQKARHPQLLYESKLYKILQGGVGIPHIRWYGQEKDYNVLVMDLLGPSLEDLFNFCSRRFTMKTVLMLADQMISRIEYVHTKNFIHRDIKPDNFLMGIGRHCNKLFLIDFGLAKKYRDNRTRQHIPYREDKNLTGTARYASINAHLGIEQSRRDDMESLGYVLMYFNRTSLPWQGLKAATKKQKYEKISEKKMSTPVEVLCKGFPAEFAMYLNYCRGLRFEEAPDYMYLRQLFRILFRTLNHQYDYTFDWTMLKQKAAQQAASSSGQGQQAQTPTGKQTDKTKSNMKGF
Sequence of MAP/microtubule affinity-regulating kinase 3 (Homo sapiens) (P27448 whole entry, looked up): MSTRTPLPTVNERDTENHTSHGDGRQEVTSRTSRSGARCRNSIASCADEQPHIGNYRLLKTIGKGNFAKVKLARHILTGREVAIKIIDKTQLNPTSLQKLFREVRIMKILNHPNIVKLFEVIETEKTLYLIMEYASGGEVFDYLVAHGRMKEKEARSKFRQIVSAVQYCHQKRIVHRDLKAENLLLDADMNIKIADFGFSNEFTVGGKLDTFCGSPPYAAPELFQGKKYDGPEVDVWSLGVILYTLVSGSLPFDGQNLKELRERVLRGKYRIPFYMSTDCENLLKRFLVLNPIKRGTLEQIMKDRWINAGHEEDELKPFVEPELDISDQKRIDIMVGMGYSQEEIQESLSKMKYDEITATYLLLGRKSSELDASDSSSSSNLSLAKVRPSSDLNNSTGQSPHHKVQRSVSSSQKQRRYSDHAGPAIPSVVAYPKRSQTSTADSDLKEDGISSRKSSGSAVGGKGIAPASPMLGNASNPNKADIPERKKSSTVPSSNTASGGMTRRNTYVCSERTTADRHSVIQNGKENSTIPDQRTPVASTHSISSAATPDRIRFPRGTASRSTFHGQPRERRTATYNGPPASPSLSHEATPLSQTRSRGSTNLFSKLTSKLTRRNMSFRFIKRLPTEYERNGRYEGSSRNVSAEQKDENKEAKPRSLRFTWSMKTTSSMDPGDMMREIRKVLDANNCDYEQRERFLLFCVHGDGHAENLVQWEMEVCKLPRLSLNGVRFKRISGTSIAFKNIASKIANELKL

SMILES: CCN(CC)CCCCNc1ncc2cc(-c3cc(OC)cc(OC)c3)c(NC(=O)NC(C)(C)C)nc2n1
- % of control [1]: 100%

SMILES: C=CC(=O)Nc1cccc(C(=O)Nc2ccc(Nc3cc(-c4[nH]c(SC)nc4C)ccn3)cc2)c1
- % of control ([2]; at 1 µM): 77%
- % of control ([2]; at 5 µM): 57%

SMILES: CCC(=O)N1CC[C@H](Nc2ncnc3c2CN(c2cnc(OC)c(C(F)(F)F)c2)CC3)C1 [LENIOLISIB]
- IC50 [3]: > 10 µM

SMILES: CC[C@@H]1[C@H](F)C(=O)N[C@@H]1COc1nccc2cc(C(N)=O)c(OC)cc12 [ZIMLOVISERTIB]
- % of inhibition [4]: 2.1%

SMILES: COCC(=O)NC/C=C/c1ccc2ncnc(Nc3ccc(Oc4ccc(C)nc4)c(C)c3)c2c1 [CP-724714]
- % of control [5]: 47%

SMILES: Cn1cc(Nc2nccc(N3CC4CCC(C3)N4C(=O)[C@@H]3CC3(F)F)n2)cn1
- % of inhibition [6]: 50%

SMILES: N#Cc1cccc(-c2c[nH]c3ncnc(N4CCOCC4)c23)c1
- % of control [7]: 94%
